Measurements as given in ChEMBL document CHEMBL1201862, “PubChem BioAssay data set” (2004).
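Step 1: Grow cells in 96-well plates. Step 2: Expose to compound for 48 hours at 5 concentrations. Step 3: Interpolate endpoints linearly; if unreached, use highest concentration. The concentration for 50% growth inhibition is given as GI50.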 Calls of active or inactive are those of the source. Rule as the data show it: active = GI50 up to about 1.1 µM and inactive = higher.

Legend:
Assay in all cases: NCI anticancer screen, dose series, 48 h
[1] = tested on: Malme-3M
[2] = tested on: CAKI-1
[3] = tested on: SF-539
[4] = tested on: SNB-78
[5] = tested on: XF498
[6] = tested on: EKVX
[7] = tested on: LOX IMVI
[8] = tested on: M14
[9] = tested on: UO-31
[10] = tested on: LXFL 529
[11] = tested on: ACHN
[12] = tested on: HCC 2998
[13] = tested on: DLD-1
[14] = tested on: SK-OV-3
[15] = tested on: OVCAR-3
[16] = tested on: HOP-92
[17] = tested on: OVCAR-4
[18] = tested on: M19-MEL
[19] = tested on: OVCAR-8
[20] = tested on: HCT-116
[21] = tested on: U-251
[22] = tested on: NCI-H460
[23] = tested on: HOP-18
[24] = tested on: NCI-H23
[25] = tested on: SW-620
[26] = tested on: KM12
[27] = tested on: SNB-19
[28] = tested on: SR
[29] = tested on: HT-29
[30] = tested on: NCI-H226
[31] = tested on: HCT-15
[32] = tested on: NCI-H522
[33] = tested on: SF-295
[34] = tested on: OVCAR-5
[35] = tested on: CCRF-CEM
[36] = tested on: SK-MEL-2
[37] = tested on: SK-MEL-28
[38] = tested on: HL-60
[39] = tested on: SN12C
[40] = tested on: SF-268
[41] = tested on: HOP-62
[42] = tested on: UACC-257
[43] = tested on: DMS-114
[44] = tested on: TK-10
[45] = tested on: UACC-62
[46] = tested on: SK-MEL-5
[47] = tested on: IGROV-1
[48] = tested on: K562
[49] = tested on: A549
[50] = tested on: RXF 393
[51] = tested on: RPMI-8226
[52] = tested on: MOLT-4
[53] = tested on: 786-0

Question: With O=C1C2Nc3ccccc3SC2C(=O)N1c1ccccc1C(F)(F)F (stereo not drawn) as the compound, how does the GI50 [1] read?
Answer: The GI50 was 19.7 µM (inactive).

Question: And the GI50 [2]?
Answer: Its GI50 is 24.9 µM (inactive).

Question: What about the GI50 [3] of the same compound?
Answer: The GI50 was 17.8 µM (inactive).

Question: And the GI50 [4]?
Answer: Its GI50 is 15.2 µM (inactive).

Question: What about the GI50 [5] of the same compound?
Answer: The GI50 was 19.6 µM (inactive).

Question: What about the GI50 [6] of the same compound?
Answer: The GI50 was 54.8 µM (inactive).

Question: What about the GI50 [7] of the same compound?
Answer: Its GI50 is 40.2 µM (inactive).

Question: And the GI50 [8]?
Answer: The GI50 was 16 µM (inactive).

Question: And the GI50 [9]?
Answer: Its GI50 is 38.2 µM (inactive).

Question: And the GI50 [10]?
Answer: The GI50 was 33.7 µM (inactive).

Question: And the GI50 [11]?
Answer: Its GI50 is 40.3 µM (inactive).

Question: What about the GI50 [12] of the same compound?
Answer: The GI50 was 16.7 µM (inactive).

Question: And the GI50 [13]?
Answer: Its GI50 is 27.3 µM (inactive).

Question: What about the GI50 [14] of the same compound?
Answer: The GI50 was 23.7 µM (inactive).

Question: What about the GI50 [15] of the same compound?
Answer: Its GI50 is 22.3 µM (inactive).

Question: What about the GI50 [16] of the same compound?
Answer: The GI50 was 25 µM (inactive).

Question: What about the GI50 [17] of the same compound?
Answer: Its GI50 is 43.1 µM (inactive).

Question: And the GI50 [18]?
Answer: The GI50 was 46.9 µM (inactive).

Question: And the GI50 [19]?
Answer: The GI50 was 33.7 µM (inactive).

Question: And the GI50 [20]?
Answer: Its GI50 is 24.5 µM (inactive).

Question: And the GI50 [21]?
Answer: The GI50 was 19.1 µM (inactive).

Question: What about the GI50 [22] of the same compound?
Answer: The GI50 was 32.7 µM (inactive).

Question: And the GI50 [23]?
Answer: The GI50 was 26.4 µM (inactive).

Question: And the GI50 [24]?
Answer: Its GI50 is 24 µM (inactive).

Question: And the GI50 [25]?
Answer: The GI50 was 21.4 µM (inactive).

Question: What about the GI50 [26] of the same compound?
Answer: The GI50 was 10.1 µM (inactive).

Question: What about the GI50 [27] of the same compound?
Answer: Its GI50 is 18.1 µM (inactive).

Question: What about the GI50 [28] of the same compound?
Answer: Its GI50 is 32.7 µM (inactive).

Question: What about the GI50 [29] of the same compound?
Answer: Its GI50 is 26.4 µM (inactive).

Question: And the GI50 [30]?
Answer: The GI50 was 43.1 µM (inactive).

Question: What about the GI50 [31] of the same compound?
Answer: Its GI50 is 15.9 µM.

Question: And the GI50 [32]?
Answer: Its GI50 is 15.3 µM (inactive).

Question: What about the GI50 [33] of the same compound?
Answer: The GI50 was 14.9 µM (inactive).

Question: And the GI50 [34]?
Answer: Its GI50 is > 100 µM (inactive).

Question: What about the GI50 [35] of the same compound?
Answer: Its GI50 is 15.2 µM (inactive).

Question: What about the GI50 [36] of the same compound?
Answer: Its GI50 is 27.2 µM (inactive).

Question: What about the GI50 [37] of the same compound?
Answer: Its GI50 is 51.9 µM (inactive).

Question: And the GI50 [38]?
Answer: The GI50 was 5.19 µM (inactive).

Question: What about the GI50 [39] of the same compound?
Answer: Its GI50 is 27.2 µM (inactive).

Question: What about the GI50 [40] of the same compound?
Answer: The GI50 was 41.1 µM (inactive).

Question: And the GI50 [41]?
Answer: The GI50 was 25.4 µM (inactive).

Question: What about the GI50 [42] of the same compound?
Answer: The GI50 was > 100 µM (inactive).

Question: What about the GI50 [43] of the same compound?
Answer: The GI50 was 40.7 µM (inactive).

Question: And the GI50 [44]?
Answer: Its GI50 is 42.1 µM (inactive).

Question: And the GI50 [45]?
Answer: Its GI50 is 19 µM (inactive).

Question: And the GI50 [46]?
Answer: The GI50 was 12 µM (inactive).

Question: What about the GI50 [47] of the same compound?
Answer: The GI50 was 54.1 µM (inactive).

Question: What about the GI50 [48] of the same compound?
Answer: The GI50 was 3.99 µM (inactive).

Question: And the GI50 [49]?
Answer: The GI50 was 20.2 µM (inactive).

Question: What about the GI50 [50] of the same compound?
Answer: The GI50 was 7.45 µM (inactive).

Question: And the GI50 [51]?
Answer: The GI50 was 29 µM (inactive).

Question: And the GI50 [52]?
Answer: Its GI50 is 23.2 µM (inactive).

Question: And the GI50 [53]?
Answer: The GI50 was 25.2 µM (inactive).
